≈ marks a conversion by molar mass, not a printed value. Read-outs that look alike come from different tables or passages of the source.
Tests used:
Type in all cases: physicochemical
[1] = Solid stability of crystal forms (80° C., light exposure, 25° C./60% RH, 40° C./75% RH); purity by liquid chromatography and XRPD of the solids
Procedure: A certain amount of API and malate crystal form VII-A were weighed and added into a liquid phase vial, and a total of 9 parallels were prepared. The 9 parallels were placed separately in 80° C. (open); 25° C., 60% RH (open); 40° C., 75% RH (open); and light stability box closed). The stabilities under conditions of: 80° C. for one day, light exposure for 10 days, as well as 25° C., 60% RH and 40° C., 75% RH for one and two weeks were tested, and the XRPD of the solids were measured.
A certain amount of crystal form B was weighed and added into a liquid phase vial, and a total of 9 parallels were prepared. 9 parallels were placed separately in 80° C.; 25° C., 60% RH, 40° C., 75% RH; and light stability boxe.

[2] = Solubility at 37° C. in buffer solutions with different pH (about 10 mg in 1 ml, 2 h and 24 h); filtrate concentration and pH, XRPD of remaining solid; conditions: for solubility at 2 h / solubility at 24 h: read-out: Solubility at 37° C.
Procedure: Approximately 10 mg of malate crystal form VII-A and free base Form A were weighed separately, and 1 ml of buffer solutions with different pH were added to make the solution supersaturated, and the mixtures were stirred at 37° C. for 2 h and 24 hours. The samples were filtered, and the filtrates were measured to determine the concentration and pH value, and the remaining solid was subjected to XRPD determination. The specific results were as follows: […]

[3] = Dynamic moisture adsorption (DVS), hygroscopicity
Procedure: DSV pattern determination method: Dynamic moisture adsorption was performed using Intrinsic DVS. In step mode, the sample is subjected to loop testing at a relative humidity of 0-90%. The sample is analyzed at 10% RH. The dm/dt is set to 0.002 to achieve equilibrium between the sample and the room environment.
Approximately 250 mg of API was weighed and added into a 4 ml glass vial, and 2.5 ml of ethyl acetate was added. The mixture was stirred overnight under magnetic stirring at 50° C., cooled to room temperature, and then filtered, and the obtained solid was dried in vacuum overnight in a 50° C. oven. The resulting solid was free base crystal form Form B. The free base crystal form Form B was subjected to various characterization.

[4] = Competitive pulping of API (free base Form A) and Form B in saturated DCM or water solution at 50° C., XRPD
Procedure: A saturated solution of API (free base Form A) in DCM and water was prepared. Approximately 10 mg of API (free base Form A) and free base crystal form Form B was weighed respectively and added into a 4 ml glass bottle, and 1 mL of the saturated solution was added. […] The resulting solid was subjected to XRPD testing.

Crystal form ([1]; 25° C., 60% RH, 1 week): Unchanged
Degradation ([1]; 25° C., 60% RH, 1 week): 0.00%
Purity ([1]; 25° C., 60% RH, 1 week): 97.69%
Crystal form ([1]; 25° C., 60% RH, 2 weeks): Unchanged
Degradation ([1]; 25° C., 60% RH, 2 weeks): 0.00%
Purity ([1]; 25° C., 60% RH, 2 weeks): 97.67%
Crystal form ([1]; 40° C., 75% RH, 1 week): Unchanged
Degradation ([1]; 40° C., 75% RH, 1 week): 0.00%
Purity ([1]; 40° C., 75% RH, 1 week): 97.70%
Crystal form ([1]; 40° C., 75% RH, 2 weeks): Unchanged
Degradation ([1]; 40° C., 75% RH, 2 weeks): 0.01%
Purity ([1]; 40° C., 75% RH, 2 weeks): 97.66%
physical and chemical stability ([1]; 80° C. 1 day, light 10 days, 25° C./60% RH and 40° C./75% RH 1 and 2 weeks): good physical and chemical stability
Crystal form ([1]; 80° C., 1 day): Unchanged
Degradation ([1]; 80° C., 1 day): 0.17%
Purity ([1]; 80° C., 1 day): 97.50%
Crystal form ([1]; Light control, 10 days): Unchanged
Degradation ([1]; Light control, 10 days): 0.00%
Purity ([1]; Light control, 10 days): 97.67%
Crystal form ([1]; Light exposure, 10 days): Unchanged
Degradation ([1]; Light exposure, 10 days): 0.04%
Purity ([1]; Light exposure, 10 days): 97.63%
Purity ([1]; initial): 97.67%
solubility compared to API ([2]; 37° C., pH 6.8, pH 7.4, FaSSIF and water): improved compared to API
solubility at 2 h ([2]; FaSSIF, 37 °C, fassif, thermodynamic from solid, medium FaSSIF, 2 h): 1.19 mg/mL (≈ 2070 µM)
solubility at 24 h ([2]; FaSSIF, 37 °C, fassif, thermodynamic from solid, medium FaSSIF, 24 h): 1.4 mg/mL (≈ 2440 µM)
solubility at 2 h ([2]; FeSSIF, 37 °C, fessif, thermodynamic from solid, medium FeSSIF, 2 h): > 10 mg/mL
solubility at 24 h ([2]; FeSSIF, 37 °C, fessif, thermodynamic from solid, medium FeSSIF, 24 h): > 10 mg/mL
solubility at 2 h ([2]; SGF, 37 °C, simulated gastric fluid, thermodynamic from solid, medium SGF, 2 h): > 10 mg/mL
solubility at 24 h ([2]; SGF, 37 °C, simulated gastric fluid, thermodynamic from solid, medium SGF, 24 h): > 10 mg/mL
solubility at 2 h ([2]; buffer solution pH 6.8, 37 °C, pH 6.8, aqueous buffer, thermodynamic from solid, medium pH 6.8, 2 h): 0.31 mg/mL (≈ 539 µM)
solubility at 24 h ([2]; buffer solution pH 6.8, 37 °C, pH 6.8, aqueous buffer, thermodynamic from solid, medium pH 6.8, 24 h): 0.25 mg/mL (≈ 436 µM)
solubility ([2]; buffer solutions: pH 1.2, pH 3.0, pH 4.5, FeSSIF, SGF, 37 °C, aqueous buffer, thermodynamic from solid, 37° C., pH 1.2, pH 3.0, pH 4.5, FeSSIF, and SGF buffer): > 10 mg/mL
Crystal form ([2]; medium FaSSIF, XRPD of remaining solid): Form B
pH (24 h) ([2]; medium FaSSIF, filtrate, 37° C.): 6.755
pH (24 h) ([2]; medium FeSSIF, filtrate, 37° C.): 5.724
Solubility at 37° C. ([2]; medium H2O, 24 h): 0.0179 mg/mL (≈ 31.1 µM)
Crystal form ([2]; medium H2O, XRPD of remaining solid): Form B
pH (24 h) ([2]; medium H2O, filtrate, 37° C.): 7.197
pH (24 h) ([2]; medium SGF, filtrate, 37° C.): 1.910
Solubility at 37° C. ([2]; medium pH 1.2, 2 h): >10 mg/mL
Solubility at 37° C. ([2]; medium pH 1.2, 24 h): >10 mg/mL
pH (24 h) ([2]; medium pH 1.2, filtrate, 37° C.): 1.925
Solubility at 37° C. ([2]; medium pH 3.0, 2 h): >10 mg/mL
Solubility at 37° C. ([2]; medium pH 3.0, 24 h): >10 mg/mL
pH (24 h) ([2]; medium pH 3.0, filtrate, 37° C.): 4.892
Solubility at 37° C. ([2]; medium pH 4.5, 2 h): >10 mg/mL
Solubility at 37° C. ([2]; medium pH 4.5, 24 h): >10 mg/mL
pH (24 h) ([2]; medium pH 4.5, filtrate, 37° C.): 6.062
Crystal form ([2]; medium pH 6.8, XRPD of remaining solid): Form B
pH (24 h) ([2]; medium pH 6.8, filtrate, 37° C.): 6.813
Solubility at 37° C. ([2]; medium pH 7.4, 2 h): 0.0472 mg/mL (≈ 82.1 µM)
Solubility at 37° C. ([2]; medium pH 7.4, 24 h): 0.0399 mg/mL (≈ 69.4 µM)
Crystal form ([2]; medium pH 7.4, XRPD of remaining solid): Form B
pH (24 h) ([2]; medium pH 7.4, filtrate, 37° C.): 7.311
crystal form in the buffers ([2]; remaining solids, XRPD): remained unchanged
solubility at 2 h ([2]; water, 37 °C, water, thermodynamic from solid, medium H2O, 2 h): 0.0395 mg/mL (≈ 68.7 µM)
crystal form before and after DVS testing [3]: did not change
solid crystal form obtained by competitive pulping ([4]; API and Form B together in DCM, 50° C., 3 days, XRPD): tended to approach Form L
appearance after competitive pulping ([4]; API and Form B together in DCM, after 5 days of beating): became oily
crystal form obtained by competitive pulping ([4]; API and Form B together in water, 50° C., 3 days, XRPD): a mixture of Form B and API
XRPD results ([4]; competitive pulping of API and Form B, DCM, 50° C., 3 days): Form K
SMILES: CCc1nc2c(N)ncc(-c3ccc(N4CCC(N5CCN(CC)CC5)CC4)c(OC)c3)c2nc1NC1CCOCC1 [Form B, 3-ethyl-8-(4-(4-(4-ethylpiperazin-1-yl)piperidin-1-yl)-3-methoxyphenyl)-N2-(tetrahydro-2H-pyran-4-yl) pyridino [3,4-b]pyrazine-2,5-diamine]

— patent publication US20250101017A1, “SALT CRYSTAL FORM AND FREE BASE CRYSTAL FORM OF KINASE INHIBITOR” (CYTOSINLAB THERAPEUTICS CO., LTD., priority 2022, published 2025)
